What follows are compounds tested on TNF-α (assay: In vitro screening for TNF-α inhibitory activity using rat whole blood assay). Details: 10 μM test substance, LPS 1 μg/mL, 5 h at 37° C, plasma TNF-α by ELISA.
Assay type: cell-based
Protocol: In Vitro Screening for TNF-α Inhibitory Activity Using Rat Whole Blood Assay:
Rats were deeply anaesthetized with anesthetic ether and blood (6-8 mL) was collected through retro-orbital plexus in a tube containing heparin (100 IU/mL). Five hundred microlitre blood sample was incubated with different concentrations of the test substances for 15 min at 37° C. LPS (1 μg/mL, final concentration) was subsequently added and the mixture was further incubated for 5 h at 37° C. The reaction was terminated by placing the samples over ice for 15 min. The samples were then centrifuged at 1000 g for 15 min at 4° C. The plasma was separated and stored in deep freezer until the assay. TNF-α levels were estimated in the treated plasma samples by ELISA method using commercially available kit (R&D System, Inc., USA). The inhibition of the TNF-α[…] production may be taken as an indicator of inhibition of TACE activity.

Compared with `CC(C)CC(C(=O)NO)N1CCC(N)(c2ccc(OCc3cc(COC(C)C)nc4ccccc34)cc2)C1=O` (centres unmarked) [Compound 5], `COc1cccc(-c2cc(COc3ccc(C4(N)CCN(C(CC(C)C)C(=O)NO)C4=O)cc3)c3ccccc3n2)c1` (centres unmarked) [Compound 27] is lower in “% of TNF-α inhibition at 10 μM dose” value: 94% for the first, 79% for the second.

Going from “2-3-Amino-3-{4-[2-(4-methoxy)phenyl)-quinolin-4-ylmethoxy]-phenyl}-2-oxo-pyrrolidin-1-yl)-4-methyl-pentanoic acid hydroxyamide [Compound 14]” to “2-{3-Amino-2-oxo-3-[4-2-p-tolyl-quinolin-4-ylmethoxy)-phenyl]-pyrrolidin-1-yl}-N-hydroxy-propionamide [Compound 9]”, the “% of TNF-α inhibition at 10 μM dose” value falls from 85% to 82%.

With “2-{3-Amino-2-oxo-3-[4-(2-p-tolylsuinolin-4-ylmethoxy)-phenyl]-pyrrolidin-1-yl}-4-methyl-pentanoic acid hydroxyamide [Compound 8]” the “% of TNF-α inhibition at 10 μM dose” value was 84%.

Same assay, conditions: 10 μM test substance, LPS 1 μg/mL, 5 h at 37° C, plasma TNF-α by ELISA, read-out: % of TNF-α inhibition at 10 μM dose

Going from `COCCc1cc(COc2ccc(C3(N)CCN(C(CC(C)C)C(=O)NO)C3=O)cc2)c2ccccc2n1` (centres unmarked) [Compound 7, 2-(3-Amino-3-{4-[2-(2-methoxy-ethyl)quinolin-4-ylmethoxy]-phenyl}-2-oxo-pyrrolidin-1-yl)-4-methyl-pentanoic acid hydroxyamide] to `COCc1cc(COc2ccc([C@]3(N)CCN([C@H](CC(C)C)C(=O)NO)C3=O)cc2)c2ccccc2n1` [Compound 2], the inhibition at 10 µM rises from 85% to 92%.

Work on `COc1ccc(-c2cc(COc3ccc([C@]4(N)CCN([C@H](C)C(=O)NO)C4=O)cc3)c3ccccc3n2)cc1` (stereo in doubt) [Compound 15, 2-(3-Amino-3-{4-[2-(4-methoxy-phenyl}-quinolin-4-ylmethoxy]-phenyl)-2-oxo-pyrrolidin-1-yl)-N-hydroxy-propionamide] yielded an inhibition at 10 µM of 84%.
